PubChem BioAssay AID248 (DTP/NCI, 2004)
“And” between values parts separate entries of the source, which are not always exact repeats. Equal entries are not always repeated. Inconclusive results and toxic doses are left out. No stated cut-off is given here; in the data, active means T/C of 150% or more; inactive means T/C below 125%.

Test system: L1210 leukemia ip in BDF1 mice, survival T/C
Test: NCI In Vivo Anticancer Drug Screen. Data for tumor model L1210 Leukemia (intraperitoneal) in B6D2F1 (BDF1) mice
Details: endpoint: mean survival time, higher = longer survival
Summary of the method: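 Transplantable tumor model; survival measured in treated vs vehicle control mice. Value = treated/control.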

[1] = dose: 25.0 mg/kg/injection, schedule: Q01DX009 (ip), vehicle: Klucel (hydroxypropylcellulose) (HPC)
[2] = dose: 50.0 mg/kg/injection, schedule: Q01DX009 (ip), vehicle: Klucel (hydroxypropylcellulose) (HPC)
[3] = dose: 100.0 mg/kg/injection, schedule: Q01DX009 (ip), vehicle: Klucel (hydroxypropylcellulose) (HPC)
[4] = dose: 200.0 mg/kg/injection, schedule: Q01DX009 (ip), vehicle: Klucel (hydroxypropylcellulose) (HPC)
[5] = dose: 100.0 mg/kg/injection, schedule: Q04DX003 (ip), vehicle: Klucel (hydroxypropylcellulose) (HPC)
[6] = dose: 200.0 mg/kg/injection, schedule: Q04DX003 (ip), vehicle: Klucel (hydroxypropylcellulose) (HPC)
[7] = dose: 400.0 mg/kg/injection, schedule: Q04DX003 (ip), vehicle: Klucel (hydroxypropylcellulose) (HPC)
[8] = dose: 12.5 mg/kg/injection, schedule: Q04DX003 (ip), vehicle: saline
[9] = dose: 25.0 mg/kg/injection, schedule: Q04DX003 (ip), vehicle: saline
[10] = dose: 100.0 mg/kg/injection, schedule: Q01DX001 (ip), vehicle: Klucel (hydroxypropylcellulose) (HPC)
[11] = dose: 200.0 mg/kg/injection, schedule: Q01DX001 (ip), vehicle: Klucel (hydroxypropylcellulose) (HPC)
[12] = dose: 400.0 mg/kg/injection, schedule: Q01DX001 (ip), vehicle: Klucel (hydroxypropylcellulose) (HPC)
[13] = dose: 100.0 mg/kg/injection, schedule: Q01DX009 (ip), vehicle: saline with Tween-80
[14] = dose: 200.0 mg/kg/injection, schedule: Q01DX009 (ip), vehicle: saline with Tween-80
[15] = dose: 400.0 mg/kg/injection, schedule: Q01DX009 (ip), vehicle: saline with Tween-80
[16] = dose: 100.0 mg/kg/injection, schedule: Q01DX001 (ip), vehicle: carboxymethylcellulose (CMC)
[17] = dose: 200.0 mg/kg/injection, schedule: Q01DX001 (ip), vehicle: carboxymethylcellulose (CMC)
[18] = dose: 400.0 mg/kg/injection, schedule: Q01DX001 (ip), vehicle: carboxymethylcellulose (CMC)
[19] = dose: 100.0 mg/kg/injection, schedule: Q01DX001 (ip), vehicle: saline
[20] = dose: 200.0 mg/kg/injection, schedule: Q01DX001 (ip), vehicle: saline
[21] = dose: 400.0 mg/kg/injection, schedule: Q01DX001 (ip), vehicle: saline
[22] = dose: 100.0 mg/kg/injection, schedule: Q04DX003 (ip), vehicle: saline with Tween-80
[23] = dose: 200.0 mg/kg/injection, schedule: Q04DX003 (ip), vehicle: saline with Tween-80
[24] = dose: 400.0 mg/kg/injection, schedule: Q04DX003 (ip), vehicle: saline with Tween-80

Measured: T/C

CC(=O)/C=N/Nc1ccccc1
inactive: [1] 93 % of control | [2] 97 % of control | dose: 50.0 mg/kg/injection, schedule: Q04DX003 (ip), vehicle: carboxymethylcellulose (CMC) 110 % of control | [3] 97 % of control | dose: 100.0 mg/kg/injection, schedule: Q04DX003 (ip), vehicle: carboxymethylcellulose (CMC) 106 % of control

O=C(Nc1ccccc1F)OCC1CC2C=CC1C2 (centres undefined)
inactive: [3] 101 % of control | [4] 104 % of control | dose: 400.0 mg/kg/injection, schedule: Q01DX009 (ip), vehicle: Klucel (hydroxypropylcellulose) (HPC) 93 % of control

O=S1(=O)CCCC1C(O)c1ccccc1 (centres undefined)
inactive: [5] 94 % of control and 98 % of control | [6] 105 % of control and 102 % of control | [7] 105 % of control and 94 % of control

FC(F)(F)c1ccc2c(c1)N(CCCN1CC[N+]3(CCOCC3)CC1)c1ccccc1S2
inactive: dose: 6.25 mg/kg/injection, schedule: Q01DX009 (ip), vehicle: saline 97 % of control | dose: 12.5 mg/kg/injection, schedule: Q01DX009 (ip), vehicle: saline 95 % of control | [8] 114 % of control | [9] 91 % of control

[N-]=[N+]=Nc1ccc(C(=O)O)cc1
inactive: [10] 100 % of control | [11] 100 % of control | [12] 103 % of control

COC(=O)c1noc2cc([N+](=O)[O-])ccc12
inactive: [13] 96 % of control | [14] 92 % of control | [15] 90 % of control

CCN=C(NCC)c1ccc(NC(=O)Nc2ccc(NC(=O)Nc3ccc(C(=NCC)NCC)cc3)cc2)cc1
inactive: dose: 0.87 mg/kg/injection, schedule: Q01DX Z (ip), vehicle: water 100 % of control | dose: 1.75 mg/kg/injection, schedule: Q01DX Z (ip), vehicle: water 100 % of control | dose: 3.5 mg/kg/injection, schedule: Q01DX Z (ip), vehicle: water 97 % of control | dose: 7.0 mg/kg/injection, schedule: Q01DX Z (ip), vehicle: water 103 % of control

C/C(CCCCl)=N/N=C(N)N
inactive: [8] 100 % of control | dose: 18.75 mg/kg/injection, schedule: Q01DX009 (ip), vehicle: saline with Tween-80 96 % of control | [9] 110 % of control | dose: 37.5 mg/kg/injection, schedule: Q01DX009 (ip), vehicle: saline with Tween-80 90 % of control | dose: 50.0 mg/kg/injection, schedule: Q04DX003 (ip), vehicle: saline 103 % of control | dose: 75.0 mg/kg/injection, schedule: Q01DX009 (ip), vehicle: saline with Tween-80 94 % of control | dose: 75.0 mg/kg/injection, schedule: Q04DX003 (ip), vehicle: acetone 95 % of control | dose: 110.0 mg/kg/injection, schedule: Q01DX009 (ip), vehicle: saline with Tween-80 98 % of control

Cc1cc([N+](=O)[O-])c(C)cc1NC(=O)c1ccccc1
inactive: [16] 91 % of control | [17] 92 % of control | [18] 94 % of control

CN(C)CCCN1CCC2(CC1)NC(=O)NC2=O
inactive: dose: 100.0 mg/kg/injection, schedule: Q04DX002 (ip), vehicle: saline 103 % of control | dose: 200.0 mg/kg/injection, schedule: Q04DX002 (ip), vehicle: saline 103 % of control | dose: 400.0 mg/kg/injection, schedule: Q04DX002 (ip), vehicle: saline 103 % of control

O=[N+]([O-])/C=C/C(Cl)(Cl)Cl
inactive: dose: 6.25 mg/kg/injection, schedule: Q01DX009 (ip), vehicle: Klucel (hydroxypropylcellulose) (HPC) 101 % of control | dose: 12.5 mg/kg/injection, schedule: Q01DX009 (ip), vehicle: Klucel (hydroxypropylcellulose) (HPC) 108 % of control | [1] 97 % of control | [2] 95 % of control

N#CC(C(=O)c1ccccc1)=C([SH2+])[SH2+].N#CC(C(=O)c1ccccc1)=C([SH2+])[SH2+].[Cu+2].c1ccc([AsH](c2ccccc2)(c2ccccc2)c2ccccc2)cc1
inactive: [19] 103 % of control | dose: 100.0 mg/kg/injection, schedule: Q04DX003 (ip), vehicle: saline 100 % of control | [20] 105 % of control | dose: 200.0 mg/kg/injection, schedule: Q04DX003 (ip), vehicle: saline 96 % of control | [21] 98 % of control | dose: 400.0 mg/kg/injection, schedule: Q04DX003 (ip), vehicle: saline 98 % of control

CCN1C=C/C(=C/c2cc3scc(-c4ccccc4)[n+]3c3ccccc23)c2ccccc21
inactive: dose: 0.01 mg/kg/injection, schedule: Q04DX003 (ip), vehicle: saline with Tween-80 108 % of control | dose: 0.02 mg/kg/injection, schedule: Q04DX003 (ip), vehicle: saline with Tween-80 98 % of control | dose: 0.04 mg/kg/injection, schedule: Q04DX003 (ip), vehicle: saline with Tween-80 93 % of control

Cc1csc[n+]1C1CCCCC1
inactive: dose: 75.0 mg/kg/injection, schedule: Q01DX001 (ip), vehicle: saline 100 % of control

C=CCOc1ncnc2nc[nH]c12
inactive: [22] 102 % of control | [23] 96 % of control | [24] 101 % of control

O=S1(=O)N2CN3CN(C2)CN1C3
inactive: [10] 94 % of control | [3] 97 % of control | [11] 102 % of control | [4] 100 % of control | [12] 104 % of control

O=c1[nH]cnc2nn(C3OC(CO)C(O)C3O)cc12 (centres undefined)
inactive: dose: 100.0 mg/kg/injection, schedule: Q01DX005 (ip), vehicle: saline 105 % of control | dose: 200.0 mg/kg/injection, schedule: Q01DX005 (ip), vehicle: saline 104 % of control

CCCCC(=O)C(OC)OC
inactive: [13] 119 % of control | [14] 95 % of control | [15] 92 % of control

O=c1c2ccccc2nc(CCN(CCCl)CCCl)n1-c1ccc(Cl)cc1
inactive: dose: 150.0 mg/kg/injection, schedule: Q04DX002 (ip), vehicle: Klucel (hydroxypropylcellulose) (HPC) 92 % of control | dose: 200.0 mg/kg/injection, schedule: Q04DX002 (ip), vehicle: Klucel (hydroxypropylcellulose) (HPC) 98 % of control | dose: 400.0 mg/kg/injection, schedule: Q04DX002 (ip), vehicle: Klucel (hydroxypropylcellulose) (HPC) 106 % of control

N#CC(Nc1c(N)nc(N)nc1N)c1ccc(N(CCCl)CCCl)cc1 (centres undefined)
inactive: dose: 50.0 mg/kg/injection, schedule: Q01DX001 (ip), vehicle: carboxymethylcellulose (CMC) 105 % of control | [16] 103 % of control | [17] 103 % of control | [18] 100 % of control

CC(N)C(=O)NCCCl (centres undefined)
inactive: dose: 10.0 mg/kg/injection, schedule: Q01DX Z (ip), vehicle: saline 91 % of control | dose: 30.0 mg/kg/injection, schedule: Q01DX Z (ip), vehicle: saline 104 % of control | dose: 100.0 mg/kg/injection, schedule: Q01DX Z (ip), vehicle: saline 91 % of control | dose: 300.0 mg/kg/injection, schedule: Q01DX Z (ip), vehicle: saline 93 % of control

CS(=O)c1ccc([N+](=O)[O-])cc1 (centres undefined)
inactive: [5] 98 % of control | [6] 104 % of control | [7] 105 % of control

COc1ccc(C)cc1CCC=O
inactive: [19] 97 % of control | [20] 101 % of control | [21] 95 % of control

O=C(O)/C(=C\c1ccc(Cl)cc1)c1ccc(C(F)(F)F)cc1[N+](=O)[O-]
inactive: [22] 96 % of control | [23] 94 % of control | [24] 92 % of control

[Br][Sn]([Br])([c]1cccc2ccccc12)[c]1cccc2ccccc12
inactive: dose: 100.0 mg/kg/injection, schedule: Q01DX001 (ip), vehicle: saline with Tween-80 102 % of control | dose: 200.0 mg/kg/injection, schedule: Q01DX001 (ip), vehicle: saline with Tween-80 93 % of control | dose: 400.0 mg/kg/injection, schedule: Q01DX001 (ip), vehicle: saline with Tween-80 93 % of control

COc1ccc(CN(N=O)c2ccc(C(=O)O)cc2)cc1
inactive: [13] 91 % of control | [22] 110 % of control | [14] 90 % of control | [23] 104 % of control | [24] 105 % of control
